Consider twelve compounds from patent publication US9133158B2, “Bicyclic dihydroisoquinoline-1-one derivatives” (Hoffmann-La Roche Inc., priority 2011, dated 2015).

The conditions of experiment [1]: rat; FAD286 after 4 weeks, spironolactone at 4 and 8 weeks of treatment; cited from earlier work.
The target in experiment [2] is CYP11B2 (Homo sapiens, UniProt P19099). The following applies: patients with primary aldosteronism, oral; cited from earlier work.
In experiment [3] the target is T1, human CYP11B2 (Homo sapiens, UniProt P19099).
T1 construct: expressed in transfected cells
T1 sequence (P19099 25-503): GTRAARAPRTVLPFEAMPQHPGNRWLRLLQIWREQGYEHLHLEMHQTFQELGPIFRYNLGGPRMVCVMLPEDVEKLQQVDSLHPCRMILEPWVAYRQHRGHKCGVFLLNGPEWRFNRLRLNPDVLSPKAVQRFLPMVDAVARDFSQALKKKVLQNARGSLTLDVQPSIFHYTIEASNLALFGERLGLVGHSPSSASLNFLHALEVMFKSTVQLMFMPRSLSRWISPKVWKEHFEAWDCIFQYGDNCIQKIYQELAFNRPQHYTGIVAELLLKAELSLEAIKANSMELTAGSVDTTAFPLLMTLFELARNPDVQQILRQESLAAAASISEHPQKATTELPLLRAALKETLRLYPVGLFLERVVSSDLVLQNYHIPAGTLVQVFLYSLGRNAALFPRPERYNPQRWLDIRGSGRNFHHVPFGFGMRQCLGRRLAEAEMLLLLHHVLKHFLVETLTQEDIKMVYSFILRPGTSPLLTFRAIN
The experiment is described as follows: G-402 cellular enzyme assay, human CYP11B2 (aldosterone release, HTRF). The format is cell-based. The following applies: G-402 cells, 1 μM Deoxycorticosterone. Put shortly:
(§1)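 Supernatant steroid product measured by HTRF (aldosterone for CYP11B2, cortisol for CYP11B1) after 16 h exposure of stably transfected G-402 cells to compound. Substrates were 1 μM deoxycorticosterone and 1 μM deoxycortisol, respectively; EC50 derived from a four-parameter MMF curve fit.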

For experiment [4], the target named is T2, human CYP11B1 (Homo sapiens, UniProt P15538).
T2 construct: expressed in transfected cells
T2 sequence (P15538 25-503): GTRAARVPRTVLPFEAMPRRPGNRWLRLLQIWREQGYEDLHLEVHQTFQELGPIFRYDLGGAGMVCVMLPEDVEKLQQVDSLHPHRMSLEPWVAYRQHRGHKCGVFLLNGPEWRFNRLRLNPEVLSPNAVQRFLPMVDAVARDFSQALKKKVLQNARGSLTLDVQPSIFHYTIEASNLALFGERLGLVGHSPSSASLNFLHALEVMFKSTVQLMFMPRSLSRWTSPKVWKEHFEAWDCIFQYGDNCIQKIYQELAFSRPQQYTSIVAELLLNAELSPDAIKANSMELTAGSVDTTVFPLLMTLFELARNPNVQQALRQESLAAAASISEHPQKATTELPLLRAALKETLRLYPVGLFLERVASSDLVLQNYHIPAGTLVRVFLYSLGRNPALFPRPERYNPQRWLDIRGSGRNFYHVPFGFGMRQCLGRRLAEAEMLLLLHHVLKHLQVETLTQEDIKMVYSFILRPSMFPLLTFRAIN
The experiment is described as follows: G-402 cellular enzyme assay, human CYP11B1 (cortisol release, HTRF). The settings on record: G-402 cells, 1 μM Deoxycortisol. The format is cell-based. Put shortly:
as §1

Regarding `N#Cc1ccc([C@H]2CCCc3cncn32)cc1` [FAD286], the plasma aldosterone entry in experiment [1] is reported as “reduced”. `N#Cc1ccc([C@H]2CCc3cncn32)c(F)c1` [LCI699]: in experiment [2], the circulating aldosterone levels entry is listed as “significantly lower”. For the compound `CC(=O)S[C@@H]1CC2=CC(=O)CC[C@]2(C)[C@H]2CC[C@@]3(C)[C@@H](CC[C@@]34CCC(=O)O4)[C@H]12` [spironolactone], in experiment [1], the plasma aldosterone result is listed as “increased”. For the compound `O=C(Cc1cncc(N2CCc3cc(Cl)ccc3C2=O)c1)N1CCOCC1` [Example 263, 6-Chloro-2-[5-(2-morpholin-4-yl-2-oxo-ethyl)-pyridin-3-yl]-3,4-dihydro-2H-isoquinolin-1-one], the EC50 worked out at 0.491 µM in experiment [3] and 4.93 µM in experiment [4]. Taken in the same sequence, the figures for `CC(C)c1nccn1Cc1cncc(N2Cc3cc(Cl)ccc3C2=O)c1` [Example 109, 5-Chloro-2-[5-(2-isopropyl-imidazol-1-ylmethyl)-pyridin-3-yl]-2,3-dihydro-isoindol-1-one] were 0.229 µM and 1.35 µM. Taken in the same sequence, the figures for `O=C1c2ccc(Cl)cc2CN1c1cncc(N2CCC[C@H]2CO)c1` [Example 136, 5-Chloro-2-[5-((S)-2-hydroxymethyl-pyrrolidin-1-yl)-pyridin-3-yl]-2,3-dihydro-isoindol-1-one] were 0.102 µM and 2.66 µM.

On to `CN1CCN(Cc2cncc(N3CCc4cc(Cl)ccc4C3=O)c2)CC1` [Example 167, 6-Chloro-2-[5-(4-methyl-piperazin-1-ylmethyl)-pyridin-3-yl]-3,4-dihydro-2H-isuquinolin-1-one], for which the EC50 was determined as 0.0479 µM in experiment [3] and 0.168 µM in experiment [4].

For the compound `O=C1c2ccc(Cl)cc2CCN1c1cncc(Cc2cc(Cl)ccc2Cl)c1` [Example 217, 6-Chloro-2-[5-(2,5-dichloro-benzyl)-pyridin-3-yl]-3,4-dihydro-2H-isoquinolin-1-one], the EC50 was determined as 0.092 µM in experiment [3] and 0.803 µM in experiment [4]. As for `CSc1cncc(N2CCc3cc(Cl)ccc3C2=O)c1` [Example 59, 6-Chloro-2-(5-methylsulfanyl-pyridin-3-yl)-3,4-dihydro-2H-isoquinolin-1-one], the EC50 in experiment [3] is 0.0081 µM; in experiment [4], 0.135 µM.

On to `O=C1c2ccc(Cl)cc2CCN1c1cncc(Cn2cc3ccccc3n2)c1` [Example 183, 6-Chloro-2-(5-indazol-2-ylmethyl-pyridin-3-yl)-3,4-dihydro-2H-isoquinolin-1-one], for which the concentration giving a half-maximal response (EC50) in experiment [3] was determined as 0.0299 µM; in experiment [4], 0.385 µM. The like results for `CC[C@@H]1c2cc(Cl)ccc2C(=O)N1c1cncc2c1CCC[C@@H]2NC(C)=O` (single isomer, unassigned) [Example 355, N-[(S or R)-4-((R or S)-5-Chloro-3-ethyl-1-oxo-1,3-dihydro-isoindol-2-yl)-5,6,7,8-tetrahydro-isoquinolin-8-yl]-acetamide] were, in that order, 0.0153 µM and 8.17 µM. Regarding `O=C1OCCN1Cc1cncc(N2CCc3cc(Cl)ccc3C2=O)c1` [Example 157, 6-Chloro-2-[5-(2-oxo-oxazolidin-3-ylmethyl)-pyridin-3-yl]-3,4-dihydro-2H-isoquinolin-1-one], the half-maximal effective concentration (EC50) is 0.352 µM in experiment [3] and 11.2 µM in experiment [4].
